According to patent publication US8026208B2, “Peptide tyrosinase inhibitors and uses thereof” (The Board of Trustees of the Leland Stanford Junior …, priority 2007, dated 2011):
No end group written: not given here.

How the values were obtained:
tyrosinase = details: read-out: published IC50; cited from earlier work
[1] = target: T1, cellular tyrosinase activity of melanocytes (Homo sapiens, UniProt P14679); experiment: Assay of cellular tyrosinase activity with L-DOPA as substrate; type: cell-based; details: 7 d treatment
T1 construct: Primary human melanocytes were kindly obtained from Dr. Todd Ridky; endogenous in cells; host or cells: primary human melanocytes (passage 3)
T1 sequence (P14679 19-529): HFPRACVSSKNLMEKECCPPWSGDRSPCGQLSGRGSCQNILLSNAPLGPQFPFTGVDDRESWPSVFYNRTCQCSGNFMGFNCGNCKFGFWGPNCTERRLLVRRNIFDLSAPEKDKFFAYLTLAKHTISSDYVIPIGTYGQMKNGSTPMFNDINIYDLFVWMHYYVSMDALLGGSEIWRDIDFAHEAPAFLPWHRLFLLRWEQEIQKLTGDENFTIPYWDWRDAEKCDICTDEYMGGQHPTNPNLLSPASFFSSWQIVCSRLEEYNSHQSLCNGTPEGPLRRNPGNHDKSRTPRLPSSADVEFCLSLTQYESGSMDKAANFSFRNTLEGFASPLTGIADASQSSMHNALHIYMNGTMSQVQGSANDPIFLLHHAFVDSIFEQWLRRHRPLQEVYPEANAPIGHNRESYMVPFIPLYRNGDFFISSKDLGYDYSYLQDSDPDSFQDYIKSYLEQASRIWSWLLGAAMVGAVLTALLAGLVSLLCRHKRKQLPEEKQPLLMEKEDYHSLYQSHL
Method: (§1) Primary human melanocytes were kindly obtained from Dr. Todd Ridky in the department of dermatology, Stanford University. Cells were cultured in Medium 254 (Cascade Biologics) supplemented with Human Melanocyte Growth Supplement (HMGS, Cascade Biologics). They were grown in a humidified atmosphere with 5% CO2 at 37° C. Cell plating densities were arranged that those cells were in log phase of growth for the duration of incubation with test samples. Subcultures of cells were plated at a density of 4×10^4 cells/cm^2. Approximately 24 h later, fresh medium and test samples were added. Cells were harvested 7 d after test samples addition, replaced with fresh medium and test samples every two days.
Human melanocytes were cultured in 6-well plates. After treatment with individual test samples for 7 d, the cells were washed with phosphate-buffered saline (PBS) and lysed with phosphate buffer, pH 6.8, containing 1% Triton X-100. After sonication, lysates were clarified by centrifugation at 10000 g for 10 min. After determination of protein content with a Bio-Rad protein assay kit, lysates were added to 96 well culture plate containing equal amounts of protein (40 μg), and adjusted with lysis buffer to reach 150 μl in each well. 75 μl of 10 mM L-DOPA dissolved in lysis buffer was added to each well. The culture plate was incubated at 37° C. for 30 min, and then read with the spectrophotometer at 475 nm.
Tyrosinase inhibitory activity was calculated with the following formula: tyrosinase inhibition (%)=[1−(O.D.475 of sample/O.D.475 of control)]×100%.
We also examined the inhibitory action of RA peptide on cellular tyrosinase activity of melanocytes, using L-DOPA as substrate. After centrifugation and protein calculation, certain volume of supernatant for each sample was transferred to 96 well culture plate by compensating a certain protein content in each well, and adjusted the volume of each well to 150 μl with 0.067M of phosphate buffer (pH 6.8). 75 μl of 10 mM L-DOPA dissolved in phosphate buffer (pH 6.8) was added to each well. The culture plate was incubated at 37° C. for 30 min, and then read with the spectrophotometer at 475 nm.

[2] = system: Primary human melanocytes; experiment: Melanocyte proliferation rate; type: cell-based; details: up to 10 μM
Method: as §1
To exclude the possibility that the inhibitory effects of RA peptide on melanogenesis might be caused by the inhibition of cell growth, we compared the number of cells grown in the presence and absence of test samples.

[3] = system: Primary human melanocytes; type: cell-based; details: 24 h, 100 µM
Method: as §1
Cell viability was determined using WST-1 Cell Proliferation Kit (Roche). Cells were plated at 1×10^5/well (24-well plates). Twenty-four hours after plating, test samples were added and cultures were incubated for an additional 7 d. At the end of the treatment period, 50 μl WST-1 was added to each well. The plates were placed at 37° C. for 4 h in the dark and the absorbance at 450 nm was read using microplate. Usually, 3 replicate wells were measured for each group to be tested. Wells containing medium but no cells served as controls. Cell viability was calculated according to the equation: cell viability=absorbance (sample tested)/absorbance (medium only)×100%. Assay of Cellular Tyrosinase Activity […]

Human melanocytes = experiment: Melanin content measurement in melanocytes; type: cell-based; details: 10 μM (peptide: similar concentration), 7 days
Method: as §1
Human melanocytes were cultured in 6-well plates and treated with individual test samples for 7 d. After washes in PBS, cells were detached by short incubation in trypsin/EDTA (0.25%/0.1% in PBS). An aliquot was used for cell count. […] Melanin concentrations were calculated by comparison of the OD at 475 nm of unknown samples with a standard curve obtained with synthetic melanin.
To provide more direct evidence that RA peptide inhibits melanogenesis, its effects on melanin production in melanocytes was studied. The contents of melanin in melanocytes treated with no addition, RA peptide or HQ for 7 days were determined with a spectrophotometer and compared with a melanin standard curve. […]

Mushroom tyrosinase [4] = experiment: Tyrosinase inhibition at single concentration (melanin synthesis evaluation); type: biochemical; details: for considered effective in these assays: mushroom tyrosinase and B-16 assays, SF 8 mM, PLG 3 mM
Method: Peptides SF, VL, and PLG-OH were tested, along with controls of kojic acid, a known tyrosinase inhibitor, and licorice extracts, a known tyrosinase inhibitor (See J. Agric. Food Chem., 51 (5), 1201-1207, 2003). Tyrosinase inhibition was measured using mushroom tyrosinase (Sigma Aldrich cat # T3824) and L-tyrosine (Sigma Aldrich cat # T8566) in an assay buffer consisting of phosphate buffer (1.0M, pH 6.8) and 5%, and absolute water. The assay buffer, with test sample concentrations and tyrosinase, was incubated in the dark at room temperature for one hour and absorption was read.

[5] = system: facial pigmentation of patients with recalcitrant melasma; experiment: Clinical study in patients with recalcitrant melasma; type: in vivo, human; details: peptide in liposomes at 1%
Source text: Patients with recalcitrant melasma (those that failed over the counter products, or HQ 4% for six months, or Tri-luma® Cream for six months) were randomized and blinded to two treatment groups (vehicle and peptide). Patients applied each product twice per day followed by a sunscreen with a sun protection factor of 30 Qam. Patients were then asked to rate the percentage improvement in their facial pigmentation using a nominal scale of 0-100, with 0 corresponding to no change and 100 corresponding to complete resolution. The results are shown in FIG. 3, in which the PLG-OH peptide is shown to be rated as 40-50% improvement, where vehicle caused no improvement. The peptide was formulated in liposomes at 1%, and the control was the liposomes alone.

Mushroom tyrosinase [6] = experiment: Mushroom tyrosinase inhibition, colorimetric detection of dopachrome (IC50, kinetics); type: biochemical; details: L-tyrosine substrate, pH 6.8, 37° C., absorbance 475 nm at 30 min
Method: Mushroom tyrosinase, L-tyrosine and other chemicals for the enzymatic reaction were obtained from Sigma-Aldrich. […] It is understood that research grade reagents were used for convenience, and it is preferred that the peptides be prepared to pharmaceutical grade purity, greater than 90%, preferably greater than 99% pure. Inhibition of tyrosinase by experimental peptides was determined by calorimetric detection of dopachrome, the reaction product of the substrate L-tyrosine. Mushroom tyrosinase, L-tyrosine, and a potassium phosphate buffer (pH 6.8) were added to 96-well plates containing short sequence peptides dissolved in 5% DMSO and incubated at 37° C. The absorbance at 475 nm was measured using a BIO-TEK plate reader 30 min after reaction initiation. Each experiment was performed in triplicate on 3 separate occasions. The protocol is described in further detail in Piao et al., “Mushroom Tyrosinase Inhibition Activity of Some Chromones,” Chem. Pharm. Bull. 56(3): 309-311 (2002), and in Pomerants, J. Biol. Chem 238:2351-2357 (1963). Enzyme kinetics were calculated using the Michaelis-Menton equation by observing changes in reaction velocity accompanying substrate concentrations of 0.5, 1, 2, and 4 mM L-tyrosine. Once initial reaction velocities were obtained, Lineweaver-Burke plots were created to calculate Km, Vmax, and to determine the mode of enzymatic inhibition.

[7] = system: B16-F10 mouse melanoma cells; experiment: Cell viability by MTT assay in B-16 pigmentation assay; type: cell-based
Method: (§2) The B-16 pigmentation assay used B16-F10 mouse melanoma cells (ATCC CRL-6475) grown in DMEM, DMEM without phenol red, FBS, antibiotics, L-glutamine and other standard components. Cells were counted in a Packard Spectracount (microplate spectrophotometer) filtered at 540 nm and 570 nm. The cells were cultured with growth medium and incubated for 24 hrs. at 37° C. and 10% CO2. Cells were treated with 200 μl of growth medium containing test active ingredient and incubated at 37° C. and 10% CO2. After 7 days, the cells were read at 540 nm using the Packard microplate reader. Cell viability was assessed using the MTT assay (Mosmann T. Rapid colorimetric assay for cellular growth and survival: application to proliferation and cytotoxicity assays. J Immunol Methods. 1983 Dec. 16; 65(1-2):55-63), which is used to determine the number of living cells in a sample.

[8] = Stability testing of 1% peptide solutions by HPLC/MS; details: 1% solution, sealed tube, ambient, HPLC or MS, 4 months
Method: A sixth peptide, VLLK (SEQ ID NO: 3), was used as inner standard for quantitative evaluation of other peptide stability.
HPLC/MS: A 1% solution was prepared for each peptide and sealed in a tube, which was kept in ambient environment. High Performance Liquid Chromatography (HPLC) and Mass Spectroscopy (MS) were tested periodically at an approximate time range of 30 days. A fresh 1% VLLK (SEQ ID NO: 3) solution used as inner standard was prepared on the same day of each test. The amount of each peptide was determined by its peak area relative to that of VLLK (SEQ ID NO: 3).

[9] = Solubility in tyrosinase assay buffer; type: physicochemical; details: 8 mM
[10] = system: B16-F10 mouse melanoma cells; experiment: B-16 pigmentation assay; type: cell-based; details: concentration tested 8 mM, 7 days
Method: as §2

For `Oc1ccc(O)cc1` [HQ, Hydroquinone], which IC50 (tyrosinase) is on record?
Its IC50 is roughly 700 µM.

What about the “reduction of cellular tyrosinase activity” value ([1]; 10 μM) of the same compound?
The value was 28.8%.

And the “inhibitory effects on melanocyte proliferation rates” value [2]?
Its value is “did not show inhibitory effects”.

And the cell death [3]?
Its cell death is 100%.

And the melanin content (Human melanocytes)?
The melanin content was “slightly reduced”.

With `O=c1cc(CO)occ1O` [Kojic Acid, 5-hydroxy-2-(hydroxymethyl)-4-pyrone, reference compound] as the compound, how does the “% Tyrosinase inhibition” value (Mushroom tyrosinase [4]; concentration tested 0.25%) read?
Its value is 94%.

For “PLG-OH [tripeptide PLG with native amino and carboxy termini, distinguished from PLG-NH2]”, which “side effects (erythema, scaling, contact dermatitis reaction, comedone formation)” value ([5]; 4-month exposure) is on record?
The value was “no side effects”.

And the “percentage improvement in facial pigmentation” value ([5]; patient-rated scale 0-100, applied twice per day)?
The value was 40-50%.

What about the “% Tyrosinase inhibition” value (Mushroom tyrosinase [4]; concentration tested 3 mM) of the same compound?
The value was 6%.

What about the “considered effective in these assays” value (Mushroom tyrosinase [4]) of the same compound?
Its value is “Neither SF peptide nor PLG was considered effective”.

What about the IC50 (Mushroom tyrosinase [6]) of the same compound?
The IC50 was 2730 µM.

And the “cytotoxicity (printed in the % Depigmentation column)” value ([7]; concentration tested 3 mM)?
The value was “cyto-toxic”.

Which results are given for RADSRADC [RA peptide, RADSRADC]?
reduction of cellular tyrosinase activity ([1]; 1 μM): 1.2%; reduction of cellular tyrosinase activity ([1]; 10 μM): 15.6%; reduction of cellular tyrosinase activity ([1]; 100 μM): 21.1%; Viability ([7]; 150, 300 and 450 uM): not significantly affected

For SFLLRN [SF peptide], which degradation [8] is on record?
Its degradation is “did not show degradation”.

What about the “considered effective in these assays” value (Mushroom tyrosinase [4]) of the same compound?
The value was “Neither SF peptide nor PLG was considered effective”.

What about the solubility in buffer [9] of the same compound?
Its solubility in buffer is “ND (insoluble”.

What about the “% Depigmentation (B-16 Assay)” value [10] of the same compound?
The value was 0%.

With VLLK [VL peptide, reference compound] as the compound, how does the “IC50 (result in words)” value (Mushroom tyrosinase [6]) read?
Its value is “no effect”.
